Experimental data taken from US8143243B2, “Compounds for the treatment of hepatitis C” (Bristol-Myers Squibb Company, priority 2007, dated 2012).
pEC50, pIC50: −log10 of the molar value. Read-outs that look alike come from different tables or passages of the source.

Key:
HCV NS5B = target: T1, HCV NS5B (Hepatitis C virus genotype 1b, UniProt Q9WMX2); assay: HCV NS5B RdRp enzyme assay (standard / modified); type: biochemical
T1 construct: The protein was expressed with an 18 amino acid C-terminal truncation to enhance the solubility; made in house; host or cells: E. coli BL21 (DE3)
Outline: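 SPA detection of 3H-UTP (0.29 μM) incorporation by C-terminally truncated (18 aa) genotype 1b NS5B from E. coli, on polyA/biotin-oligo-dT12 at 30° C, pH 7.5 Hepes, 2% DMSO. Modified format: 14 nM enzyme, 0.2 nM template, 20 nM primer prebound to beads, 4 h; standard: 28 nM, 6 nM, 180 nM free primer, 60 min. Seven-point IC50 fit.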

HCV replicon cells = assay: HCV replicon FRET / luciferase assay; type: cell-based; conditions: Hepatitis C virus
Excerpt: FRET Assay Preparation. To perform the HCV FRET screening assay, 96-well cell culture plates were used. The FRET peptide (Anaspec, Inc.) (Taliani et al., Anal. Biochem. 1996, 240, 60-67) contains a fluorescence donor, EDANS, near one end of the peptide and an acceptor, DABCYL, near the other end. The fluorescence of the peptide is quenched by […] resonance energy transfer (RET) between the donor and the acceptor, but as the NS3 protease cleaves the peptide the products are released from RET quenching and the fluorescence of the donor becomes apparent. The assay reagent was made as follows: 5× cell Luciferase cell culture lysis reagent from Promega (#E153A) diluted to 1× with dH2O, NaCl added to 150 mM final, the FRET peptide diluted to 20 μM final from a 2 mM stock.
To prepare plates, HCV replicon cells, with or without a Renilla luciferase reporter gene, were trypsinized and placed into each well of a 96-well plate with titrated test compounds added in columns 3 through 12; columns 1 and 2 contained a control compound (HCV protease inhibitor), and the bottom row contained cells without compound. The plates were then placed in a CO2 incubator at 37° C.
Assays. Subsequent to addition of the test compounds described above (FRET Assay Preparation), at various times the plate was removed and Alamar blue solution (Trek Diagnostics, #00-100) was added per well as a measure of cellular toxicity. After reading in a Cytoflour 4000 instrument (PE Biosystems), plates were rinsed with PBS and then used for FRET assay by the addition of 30 ul of the FRET peptide assay reagent described above (FRET Assay Preparation) per well. The plate was then placed into the Cytoflour 4000 instrument which had been set to 340 excite/490 emission, automatic mode for 20 cycles and the plate read in a kinetic mode. Typically, the signal to noise using an endpoint analysis after the reads was at least three-fold. Alternatively, after Alamar blue reading, plates were rinsed with PBS, 50 ul of DMEM (high glucose) without phenol red was added and plates were then used for luciferase assay using the Promega Dual-Glo Luciferase Assay System.
Compound analysis was determined by quantification of the relative HCV replicon inhibition and the relative cytotoxicity values. To calculate cytoxicity values, the average Alamar Blue fluorescence signals from the control wells were set as 100% non-toxic. The individual signals in each of the compound test wells were then divided by the average control signal and multiplied by 100% to determine […]. To calculate the HCV replicon inhibition values, an average background value was obtained from the two wells containing the highest amount of HCV protease inhibitor at the end of the assay period. These numbers were similar to those obtained from naïve Huh-7 cells.
The background numbers were then subtracted from the average signal obtained from the control wells and this number was used as 100% activity. The individual signals in each of the compound test wells were then divided by the averaged control values after background subtraction and multiplied by 100% to determine percent activity. EC50 values for a protease inhibitor titration were calculated as the concentration which caused a 50% reduction in FRET or luciferase activity. The two numbers generated for the compound plate, percent cytoxicity and percent activity were used to determine compounds of interest for further analysis.

[1] = HCV RdRp genotype 1b enzyme, read-out: IC50
[2] = HCV replicon cells, FRET or luciferase readout, read-out: EC50

T1 sequence (Q9WMX2 2420-2992): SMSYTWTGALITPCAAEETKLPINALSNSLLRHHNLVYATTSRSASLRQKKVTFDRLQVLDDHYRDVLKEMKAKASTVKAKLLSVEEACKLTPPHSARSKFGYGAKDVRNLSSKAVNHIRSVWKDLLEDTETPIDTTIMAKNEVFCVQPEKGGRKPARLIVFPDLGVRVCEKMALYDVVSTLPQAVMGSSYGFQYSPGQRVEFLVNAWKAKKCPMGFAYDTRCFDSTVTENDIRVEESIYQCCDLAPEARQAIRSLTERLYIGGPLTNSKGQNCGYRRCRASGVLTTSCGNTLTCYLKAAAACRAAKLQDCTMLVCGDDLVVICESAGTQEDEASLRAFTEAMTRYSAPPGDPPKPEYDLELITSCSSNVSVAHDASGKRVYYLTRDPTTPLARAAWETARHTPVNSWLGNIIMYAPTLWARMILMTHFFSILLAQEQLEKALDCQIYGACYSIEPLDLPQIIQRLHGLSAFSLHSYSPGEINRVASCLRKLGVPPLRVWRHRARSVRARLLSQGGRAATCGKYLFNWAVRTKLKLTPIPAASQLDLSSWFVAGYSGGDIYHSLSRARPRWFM

Structure (SMILES) | pIC50 (HCV NS5B; [1]) | pEC50 (HCV replicon cells; [2]) | pIC50 (HCV NS5B) | pEC50 (HCV replicon cells)
COc1ccc2c(c1)C=C(c1ccsc1C(=O)N1CCOCC1)Cn1c-2c(C2CCCCC2)c2ccc(C(=O)NS(=O)(=O)N(C)C)cc21 | 6.30 to 9.00 | 6.30 to 9.00 |  | 
COc1ccc2c(c1)C=C(c1c(C(=O)N3CCOCC3)cnn1C(C)C)Cn1c-2c(C2CCCCC2)c2ccc(C(=O)O)cc21 | 6.30 to 9.00 | 6.30 to 9.00 |  | 
COc1ccc2c(c1)C=C(c1c(C(=O)N3CCOCC3)cnn1C(C)C)Cn1c-2c(C2CCCCC2)c2ccc(C(=O)NS(=O)(=O)N(C)C)cc21 | 6.30 to 9.00 | 6.30 to 9.00 |  | 
COc1ccc2c(c1)C=C(c1c(C(=O)N3C4CCC3CC4)cnn1C)Cn1c-2c(C2CCCCC2)c2ccc(C(=O)NS(=O)(=O)N3CCOCC3)cc21 |  |  | 6.30 to 9.00 | 6.30 to 9.00
COc1ccc2c(c1)C=C(c1c(C(=O)N3[C@@H]4CC[C@H]3CN(C)C4)cnn1C)Cn1c-2c(C2CCCCC2)c2ccc(C(=O)NS(=O)(=O)N3CCOCC3)cc21 |  |  | 6.30 to 9.00 | 6.30 to 9.00
COc1ccc2c(c1)C=C(c1c(C(=O)N3C[C@H]4CC[C@@H](C3)N4C)cnn1C)Cn1c-2c(C2CCCCC2)c2ccc(C(=O)NS(=O)(=O)N3CCOCC3)cc21 |  |  | 6.30 to 9.00 | 6.30 to 9.00
COCCN(C(=O)c1cnn(C)c1C1=Cc2cc(OC)ccc2-c2c(C3CCCCC3)c3ccc(C(=O)NS(=O)(=O)N4CCOCC4)cc3n2C1)C(C)C | 6.30 to 9.00 | 6.30 to 9.00 |  | 
COc1ccc2c(c1)C=C(c1c(C(=O)N(C)CCN(C)C)cnn1C)Cn1c-2c(C2CCCCC2)c2ccc(C(=O)NS(=O)(=O)N3CCOCC3)cc21 | 6.30 to 9.00 | 6.30 to 9.00 |  | 
COc1ccc2c(c1)C=C(c1c(C(=O)N3CCC(N4CCCC4)CC3)cnn1C)Cn1c-2c(C2CCCCC2)c2ccc(C(=O)NS(=O)(=O)N3CCOCC3)cc21 | 6.30 to 9.00 | < 6.30 |  | 
COC[C@@H]1CN(C(=O)c2cnn(C)c2C2=Cc3cc(OC)ccc3-c3c(C4CCCCC4)c4ccc(C(=O)NS(=O)(=O)N5CCOCC5)cc4n3C2)CCO1 | 6.30 to 9.00 | 6.30 to 9.00 |  | 
COc1ccc2c(c1)C=C(c1c(C(=O)N3C[C@@H](C)N(C)[C@@H](C)C3)cnn1C)Cn1c-2c(C2CCCCC2)c2ccc(C(=O)NS(=O)(=O)N3CCOCC3)cc21 | 6.30 to 9.00 | 6.30 to 9.00 |  | 
COc1ccc2c(c1)C=C(c1c(C(=O)N3CCC(N(C)C)C3)cnn1C)Cn1c-2c(C2CCCCC2)c2ccc(C(=O)NS(=O)(=O)C(C)C)cc21 (stereo not drawn) | 6.30 to 9.00 | 6.30 to 9.00 |  | 
COc1ccc2c(c1)C=C(c1c(C(=O)N3CCOCC3)cnn1C)Cn1c-2c(C2CCCCC2)c2ccc(C(=O)NS(=O)(=O)C(C)C)cc21 | 6.30 to 9.00 | 6.30 to 9.00 |  | 
COc1ccc2c(c1)C=C(c1c(C(=O)N3CCN4CCCC4C3)cnn1C)Cn1c-2c(C2CCCCC2)c2ccc(C(=O)NS(=O)(=O)C(C)C)cc21 (stereo not drawn) | 6.30 to 9.00 | 6.30 to 9.00 |  | 
CCN1C[C@@H]2C[C@H]1CN2C(=O)c1cnn(C)c1C1=Cc2cc(OC)ccc2-c2c(C3CCCCC3)c3ccc(C(=O)NS(=O)(=O)C(C)C)cc3n2C1 | 6.30 to 9.00 | 6.30 to 9.00 |  | 
COc1ccc2c(c1)C=C(c1c(C(=O)N3CCN(C)CC3)cnn1C)Cn1c-2c(C2CCCCC2)c2ccc(C(=O)NS(=O)(=O)C(C)C)cc21 | 6.30 to 9.00 | 6.30 to 9.00 |  | 
COc1ccc2c(c1)C=C(c1c(C(=O)N3CCN(C(C)C)CC3)cnn1C)Cn1c-2c(C2CCCCC2)c2ccc(C(=O)NS(=O)(=O)C(C)C)cc21 | 6.30 to 9.00 | 6.30 to 9.00 |  | 
COCCN(C(=O)c1cnn(C)c1C1=Cc2cc(OC)ccc2-c2c(C3CCCCC3)c3ccc(C(=O)NS(=O)(=O)C(C)C)cc3n2C1)C(C)C | 6.30 to 9.00 | 6.30 to 9.00 |  | 
COc1ccc2c(c1)C=C(c1c(C(=O)N3CCC(N4CCCC4)CC3)cnn1C)Cn1c-2c(C2CCCCC2)c2ccc(C(=O)NS(=O)(=O)C(C)C)cc21 | 6.30 to 9.00 | 6.30 to 9.00 |  | 
COC[C@@H]1CN(C(=O)c2cnn(C)c2C2=Cc3cc(OC)ccc3-c3c(C4CCCCC4)c4ccc(C(=O)NS(=O)(=O)C(C)C)cc4n3C2)CCO1 | 6.30 to 9.00 | 6.30 to 9.00 |  | 

Structure (SMILES) | pIC50 (HCV NS5B; [1]) | pEC50 (HCV replicon cells; [2]) | pIC50 (HCV NS5B) | pEC50 (HCV replicon cells)
COc1ccc2c(c1)C=C(c1c(C(=O)N3C[C@@H](C)N(C)[C@@H](C)C3)cnn1C)Cn1c-2c(C2CCCCC2)c2ccc(C(=O)NS(=O)(=O)C(C)C)cc21 | 6.30 to 9.00 | 6.30 to 9.00 |  | 
COc1ccc2c(c1)C=C(c1c(C(=O)N3CCCC(N(C)C)C3)cnn1C)Cn1c-2c(C2CCCCC2)c2ccc(C(=O)NS(=O)(=O)C(C)C)cc21 (stereo not drawn) | 6.30 to 9.00 | 6.30 to 9.00 |  | 
COc1ccc2c(c1)C=C(c1c(C(=O)N3C[C@@H](C)O[C@@H](C)C3)cnn1C)Cn1c-2c(C2CCCCC2)c2ccc(C(=O)NS(=O)(=O)C(C)C)cc21 | 6.30 to 9.00 | 6.30 to 9.00 |  | 
COc1ccc2c(c1)C=C(c1c(C(=O)N(C)C)cnn1C)Cn1c-2c(C2CCCCC2)c2ccc(C(=O)NS(=O)(=O)C(C)C)cc21 | 6.30 to 9.00 | 6.30 to 9.00 |  | 
COc1ccc2c(c1)C=C(c1c(C(=O)N(CCN(C(C)C)C(C)C)C(C)C)cnn1C)Cn1c-2c(C2CCCCC2)c2ccc(C(=O)NS(=O)(=O)C(C)C)cc21 | 6.30 to 9.00 | 6.30 to 9.00 |  | 
COc1ccc2c(c1)C=C(c1c(C(=O)N3CCOCC3)cnn1C)Cn1c-2c(C2CCCCC2)c2ccc(C(=O)NS(=O)(=O)C3CCCC3)cc21 | 6.30 to 9.00 | 6.30 to 9.00 |  | 
COC[C@@H]1CN(C(=O)c2cnn(C)c2C2=Cc3cc(OC)ccc3-c3c(C4CCCCC4)c4ccc(C(=O)NS(=O)(=O)C5CCCC5)cc4n3C2)CCO1 | 6.30 to 9.00 | 6.30 to 9.00 |  | 
CCC(C)S(=O)(=O)NC(=O)c1ccc2c(C3CCCCC3)c3n(c2c1)CC(c1c(C(=O)N2CCOCC2)cnn1C)=Cc1cc(OC)ccc1-3 (stereo not drawn) | 6.30 to 9.00 | 6.30 to 9.00 |  | 
CCC(C)S(=O)(=O)NC(=O)c1ccc2c(C3CCCCC3)c3n(c2c1)CC(c1c(C(=O)N2C[C@@H](C)O[C@@H](C)C2)cnn1C)=Cc1cc(OC)ccc1-3 (stereo partly drawn) | 6.30 to 9.00 | 6.30 to 9.00 |  | 
CCC(C)S(=O)(=O)NC(=O)c1ccc2c(C3CCCCC3)c3n(c2c1)CC(c1c(C(=O)N2CC(C)N(C)C(C)C2)cnn1C)=Cc1cc(OC)ccc1-3 (stereo not drawn) | 6.30 to 9.00 | 6.30 to 9.00 |  | 
CCC(C)S(=O)(=O)NC(=O)c1ccc2c(C3CCCCC3)c3n(c2c1)CC(c1c(C(=O)N2CCCC(N(C)C)C2)cnn1C)=Cc1cc(OC)ccc1-3 (stereo not drawn) | 6.30 to 9.00 | 6.30 to 9.00 |  | 
CCC(C)S(=O)(=O)NC(=O)c1ccc2c(C3CCCCC3)c3n(c2c1)CC(c1c(C(=O)N2CCOC(COC)C2)cnn1C)=Cc1cc(OC)ccc1-3 (stereo not drawn) | 6.30 to 9.00 | 6.30 to 9.00 |  | 
COc1ccc2c(c1)C=C(c1c(C(=O)N3C4CCC3CC(C)(O)C4)cnn1CC(F)(F)F)Cn1c-2c(C2CCCCC2)c2ccc(C(=O)NS(=O)(=O)C(C)C)cc21 (stereo not drawn) |  |  | 6.30 to 9.00 | 6.30 to 9.00
COc1ccc2c(c1)C=C(c1c(C(=O)N3C4CCC3CN(C)C4)c(C(F)(F)F)nn1C)Cn1c-2c(C2CCCCC2)c2ccc(C(=O)NS(=O)(=O)C(C)C)cc21 |  |  | 6.30 to 9.00 | 6.30 to 9.00
COc1ccc2c(c1)C=C(c1occc1C(=O)N1C3CCC1CN(C)C3)Cn1c-2c(C2CCCCC2)c2ccc(C(=O)NS(=O)(=O)C(C)C)cc21 |  |  | 6.30 to 9.00 | 6.30 to 9.00
COc1ccc2c(c1)C=C(c1c(C(=O)N3CC4CCC(C3)N4C)c(C(F)(F)F)nn1C)Cn1c-2c(C2CCCCC2)c2ccc(C(=O)NS(=O)(=O)C(C)C)cc21 |  |  | 6.30 to 9.00 | 6.30 to 9.00
CCn1ncc(C(=O)N2C3CCCC2COC3)c1C1=Cc2cc(OC)ccc2-c2c(C3CCCCC3)c3ccc(C(=O)NS(=O)(=O)C(C)C)cc3n2C1 |  |  | 6.30 to 9.00 | 6.30 to 9.00
COc1ccc2c(c1)C=C(c1c(C(=O)N3C4CCC3COC4)cnn1CC(F)(F)F)Cn1c-2c(C2CCCCC2)c2ccc(C(=O)NS(=O)(=O)C(C)C)cc21 |  |  | 6.30 to 9.00 | 6.30 to 9.00
CCn1nc(C)c(C(=O)N2CC3CCC(C2)N3C)c1C1=Cc2cc(OC)ccc2-c2c(C3CCCCC3)c3ccc(C(=O)NS(=O)(=O)C(C)C)cc3n2C1 |  |  | 6.30 to 9.00 | 6.30 to 9.00
